Assay [1] addresses TLR1/TLR2 (Mus musculus, UniProt Q9EPQ1+Q9QUN7). Kind of assay: TNF-α release from thioglycolate-elicited mouse peritoneal macrophages (ELISA). Conditions: for Emax: 4 h, read-out: Efficacy (magnitude) of response versus diprovocim-1 (100%), mouse macrophages. A general note: ELISA stands for enzyme-linked immunosorbent assay.
Protocol: Thioglycolate-elicited macrophages were recovered 4 days after i.p. injection of 2 mL BBL thioglycolate medium, brewer modified (4%; BD Biosciences) by peritoneal lavage with 5 mL phosphate buffered saline (PBS). […] Cells were seeded onto 96-well plates at 1×10^3 cells per well and treated with systematically varied concentrations of the candidate compounds (dissolved in DMSO, and final assay DMSO concentrations (0.5%) were kept constant in all experiments) for 4 h. Ultra-pure LPS (dissolved in H2O, Enzo Life Sciences) was assessed alongside the compounds as a positive control and DMSO treated controls. […] Mouse TNF-α in the supernatants was measured by ELISA kits according to the manufacturer's instructions (eBioscience). EC50's were calculated by Graphpad Prism. All data is mean of duplicates and SD is within ±10% of mean. Mouse cells were from wild type C57BL/6J mice.
Assay [2] deals with TLR1/TLR2 (Homo sapiens, UniProt O60603+Q15399). Kind of assay: TNF-α release from PMA-differentiated human THP-1 cells (ELISA).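 For all read-outs here: cells exposed to graded compound concentrations for 4 h, TNF-α quantified in supernatant, LPS as positive and DMSO as negative control, values are duplicate means.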 Particulars: for Emax: THP-1, 4 h, read-out: Efficacy (magnitude) of response versus diprovocim-1 (100%), THP-1; for EC50: read-out: EC50 (nM) (THP-1): EC50 TNF-α release from human THP-1 cells.
TLR1/TLR2 (Homo sapiens, UniProt O60603+Q15399), sequence (Q15399 25-786): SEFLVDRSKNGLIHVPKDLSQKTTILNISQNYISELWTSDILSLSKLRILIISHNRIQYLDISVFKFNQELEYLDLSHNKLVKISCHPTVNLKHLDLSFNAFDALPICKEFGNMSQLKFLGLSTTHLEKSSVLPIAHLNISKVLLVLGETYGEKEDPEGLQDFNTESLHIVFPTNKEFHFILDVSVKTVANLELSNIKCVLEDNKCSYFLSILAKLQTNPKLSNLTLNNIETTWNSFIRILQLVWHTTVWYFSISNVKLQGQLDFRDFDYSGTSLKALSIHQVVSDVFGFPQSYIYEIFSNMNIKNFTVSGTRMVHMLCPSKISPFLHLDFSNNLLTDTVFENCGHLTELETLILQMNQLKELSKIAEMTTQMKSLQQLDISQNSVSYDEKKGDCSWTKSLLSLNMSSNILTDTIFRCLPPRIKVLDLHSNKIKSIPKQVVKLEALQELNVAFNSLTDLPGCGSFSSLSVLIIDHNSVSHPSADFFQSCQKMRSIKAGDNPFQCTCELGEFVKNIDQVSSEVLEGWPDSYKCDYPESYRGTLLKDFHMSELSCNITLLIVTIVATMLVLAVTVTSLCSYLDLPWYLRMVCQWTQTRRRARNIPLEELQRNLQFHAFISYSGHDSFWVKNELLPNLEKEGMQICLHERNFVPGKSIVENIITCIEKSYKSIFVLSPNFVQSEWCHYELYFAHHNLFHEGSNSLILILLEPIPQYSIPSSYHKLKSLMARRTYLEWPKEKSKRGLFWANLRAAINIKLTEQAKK
TLR1/TLR2 (Homo sapiens, UniProt O60603+Q15399), sequence (O60603 21-784): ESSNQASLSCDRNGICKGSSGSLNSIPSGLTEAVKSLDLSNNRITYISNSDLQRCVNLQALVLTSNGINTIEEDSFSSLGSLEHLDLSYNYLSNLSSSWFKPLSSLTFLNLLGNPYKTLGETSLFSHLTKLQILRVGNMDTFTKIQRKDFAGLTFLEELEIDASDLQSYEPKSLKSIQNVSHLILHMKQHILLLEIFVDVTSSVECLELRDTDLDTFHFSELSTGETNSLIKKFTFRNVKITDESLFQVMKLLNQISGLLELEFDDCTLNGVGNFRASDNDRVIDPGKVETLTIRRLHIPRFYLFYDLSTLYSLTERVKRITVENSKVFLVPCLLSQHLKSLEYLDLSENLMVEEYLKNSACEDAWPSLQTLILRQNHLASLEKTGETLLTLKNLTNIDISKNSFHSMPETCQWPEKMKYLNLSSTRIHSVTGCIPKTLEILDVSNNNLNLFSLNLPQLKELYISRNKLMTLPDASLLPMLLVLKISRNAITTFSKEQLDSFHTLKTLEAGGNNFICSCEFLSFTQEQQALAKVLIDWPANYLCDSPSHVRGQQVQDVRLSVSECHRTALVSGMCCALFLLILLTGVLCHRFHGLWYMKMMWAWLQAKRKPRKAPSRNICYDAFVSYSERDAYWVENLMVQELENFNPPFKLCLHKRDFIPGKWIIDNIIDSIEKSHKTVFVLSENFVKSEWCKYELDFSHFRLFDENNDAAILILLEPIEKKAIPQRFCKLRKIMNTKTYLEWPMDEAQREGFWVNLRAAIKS
Setting [3] is: read-out: EC50 (nM) (mouse): EC50 TNF-α release from mouse macrophages, Table 3.

SMILES strings stand for the structures. Read-outs that look alike come from different tables or passages of the source.

For twelve compounds, Emax and EC50 results are on record in patent US20250367166A1, “NEXT GENERATION DIPROVOCIMS THAT ACTIVATE THE INNATE AND ADAPTIVE IMMUNE RESPONSE” (The Scripps Research Institute, priority 2022, published 2025).

The term EC50 denotes the concentration that produces a half-maximal response.

TLR1/TLR2 (Mus musculus, UniProt Q9EPQ1+Q9QUN7), sequence (Q9EPQ1 26-795): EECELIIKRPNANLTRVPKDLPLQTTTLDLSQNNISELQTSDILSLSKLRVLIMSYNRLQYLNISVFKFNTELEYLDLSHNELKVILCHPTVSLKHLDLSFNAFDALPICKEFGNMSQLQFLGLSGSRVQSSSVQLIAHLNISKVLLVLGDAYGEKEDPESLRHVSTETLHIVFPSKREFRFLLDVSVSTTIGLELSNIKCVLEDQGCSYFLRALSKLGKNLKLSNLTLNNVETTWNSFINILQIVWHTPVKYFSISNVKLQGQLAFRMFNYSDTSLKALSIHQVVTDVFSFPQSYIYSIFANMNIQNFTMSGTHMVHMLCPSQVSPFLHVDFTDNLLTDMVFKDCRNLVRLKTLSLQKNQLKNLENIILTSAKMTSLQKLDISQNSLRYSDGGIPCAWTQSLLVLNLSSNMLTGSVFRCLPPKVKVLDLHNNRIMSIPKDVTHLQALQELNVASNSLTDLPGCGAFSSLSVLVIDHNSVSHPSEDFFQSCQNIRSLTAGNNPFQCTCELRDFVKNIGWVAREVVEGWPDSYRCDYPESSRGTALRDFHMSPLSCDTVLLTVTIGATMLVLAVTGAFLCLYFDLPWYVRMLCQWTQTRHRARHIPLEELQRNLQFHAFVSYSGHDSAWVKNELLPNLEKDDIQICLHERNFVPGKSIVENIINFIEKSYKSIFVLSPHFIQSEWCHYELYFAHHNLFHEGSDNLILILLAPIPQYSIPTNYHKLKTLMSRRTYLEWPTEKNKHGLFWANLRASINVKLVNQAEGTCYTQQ
TLR1/TLR2 (Mus musculus, UniProt Q9EPQ1+Q9QUN7), sequence (Q9QUN7 25-784): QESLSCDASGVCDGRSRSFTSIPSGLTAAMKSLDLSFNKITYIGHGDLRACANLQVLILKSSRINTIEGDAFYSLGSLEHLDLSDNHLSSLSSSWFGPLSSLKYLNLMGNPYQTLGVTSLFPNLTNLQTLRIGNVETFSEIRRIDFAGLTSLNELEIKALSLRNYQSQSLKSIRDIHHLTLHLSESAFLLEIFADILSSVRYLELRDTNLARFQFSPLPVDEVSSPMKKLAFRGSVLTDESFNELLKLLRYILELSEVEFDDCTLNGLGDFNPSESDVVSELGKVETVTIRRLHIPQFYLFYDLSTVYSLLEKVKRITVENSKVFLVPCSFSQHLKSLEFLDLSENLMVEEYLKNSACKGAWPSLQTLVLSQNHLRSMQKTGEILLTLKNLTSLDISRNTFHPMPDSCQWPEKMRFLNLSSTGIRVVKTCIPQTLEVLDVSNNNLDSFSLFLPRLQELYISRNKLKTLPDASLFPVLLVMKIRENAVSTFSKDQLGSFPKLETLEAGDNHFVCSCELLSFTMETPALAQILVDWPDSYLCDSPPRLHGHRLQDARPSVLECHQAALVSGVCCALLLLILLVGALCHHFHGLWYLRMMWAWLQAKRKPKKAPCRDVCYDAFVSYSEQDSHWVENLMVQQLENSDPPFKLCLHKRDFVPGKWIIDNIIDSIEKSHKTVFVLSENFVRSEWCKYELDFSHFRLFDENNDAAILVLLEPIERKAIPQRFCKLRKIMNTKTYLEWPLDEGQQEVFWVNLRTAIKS

With `Nc1ccc(CCCCCCCCNC(=O)[C@@H]2CN(C(=O)c3ccc(C(=O)N4C[C@@H](C(=O)N[C@H]5C[C@@H]5c5ccccc5)[C@H](C(=O)N[C@H]5C[C@@H]5c5ccccc5)C4)cc3)C[C@H]2C(=O)N[C@H]2C[C@@H]2c2ccccc2)cc1` [Compound 27, (3S,4S)—N-(8-(4-Aminophenyl)octyl)-1-(4-((3S,4S)-3,4-bis(((1S,2R)-2-phenylcyclopropyl)carbamoyl)-pyrrolidine-1-carbonyl)benzoyl)-N^4-((1S,2R)-2-phenyl-cyclopropyl)-pyrrolidine-3,4-dicarboxamide], the Emax on TLR1/TLR2 [1] came to 250%; at TLR1/TLR2 [2], 100%. Moreover, the EC50 at TLR1/TLR2 [1] (read-out: EC50 (nM) (mouse): EC50 TNF-α release from mouse macrophages, Table 1) stood at 6 nM; at TLR1/TLR2 [2] (Table 1) it was 0.3 nM.
`O=C(NCCOCCOCCOCCO)[C@@H]1CN(C(=O)c2ccc(C(=O)N3C[C@@H](C(=O)N[C@H]4C[C@@H]4c4ccccc4)[C@H](C(=O)N[C@H]4C[C@@H]4c4ccccc4)C3)cc2)C[C@H]1C(=O)N[C@H]1C[C@@H]1c1ccccc1` [Compound 30, (3S,4S)-1-(4-((3S,4S)-3,4-Bis(((1S,2R)-2-phenyl-cyclopropyl)carbamoyl)pyrrolidine-1-carbonyl)-benzoyl)-N^3-(2-(2-(2-(2-hydroxyethoxy)ethoxy)ethoxy)-ethyl)-N^4-((1S,2R)-2-phenylcyclopropyl)-pyrrolidine-3,4-dicarboxamide]: the results for the EC50 at TLR1/TLR2 [1] and on TLR1/TLR2 [2] (Table 2) were over 5000 nM and 2000 nM, respectively.
Regarding `O=C(O)CCOCCOCCOCCNC(=O)[C@@H]1CN(C(=O)c2ccc(C(=O)N3C[C@@H](C(=O)N[C@H]4C[C@@H]4c4ccccc4)[C@H](C(=O)N[C@H]4C[C@@H]4c4ccccc4)C3)cc2)C[C@H]1C(=O)N[C@H]1C[C@@H]1c1ccccc1` [Compound 31, 1-((3S,4S)-1-(4-((3S,4S)-3,4-Bis(((1S,2R)-2-phenylcyclopropyl)carbamoyl)pyrrolidine-1-carbonyl)benzoyl)-4-(((1S,2R)-2-phenylcyclopropyl)-carbamoyl)pyrrolidin-3-yl)-1-oxo-5,8,11-trioxa-2-azatetradecan-14-oic acid], the EC50 at TLR1/TLR2 [1] was over 5000 nM; at TLR1/TLR2 [2] (Table 2), 100 nM.
For `CC(=O)OCCCCCCCCCCCCNC(=O)[C@@H]1CN(C(=O)c2ccc(C(=O)N3C[C@@H](C(=O)N[C@H]4C[C@@H]4c4ccccc4)[C@H](C(=O)N[C@H]4C[C@@H]4c4ccccc4)C3)cc2)C[C@H]1C(=O)N[C@H]1C[C@@H]1c1ccccc1` [Compound 32, 12-((3S,4S)-1-(4-((3S,4S)-3,4-Bis(((1S,2R)-2-phenyl-cyclopropyl)carbamoyl)pyrrolidine-1-carbonyl)benzoyl)-4-(((1S,2R)-2-phenylcyclopropyl)carbamoyl)pyrrolidine-3-carboxamido)dodecyl acetate], the results for the Emax at TLR1/TLR2 [1] and at TLR1/TLR2 [2] were 140% and 130%, respectively. Moreover, the EC50 on TLR1/TLR2 [1] (setting [3]) is 1.5 nM; on TLR1/TLR2 [2] (Table 3), 0.14 nM.
For `N#CCC(=O)OCCCCCCCCCCCCNC(=O)[C@@H]1CN(C(=O)c2ccc(C(=O)N3C[C@@H](C(=O)N[C@H]4C[C@@H]4c4ccccc4)[C@H](C(=O)N[C@H]4C[C@@H]4c4ccccc4)C3)cc2)C[C@H]1C(=O)N[C@H]1C[C@@H]1c1ccccc1` [Compound 33, 12-((3S,4S)-1-(4-((3S,4S)-3,4-Bis(((1S,2R)-2-phenylcyclopropyl)carbamoyl)pyrrolidine-1-carbonyl)benzoyl)-4-(((1S,2R)-2-phenylcyclopropyl)-carbamoyl)pyrrolidine-3-carboxamido)dodecyl 2-cyanoacetate] the same measures were 120%, 100%, 4.5 nM and 0.25 nM.
For `[N-]=[N+]=NCC(=O)OCCCCCCCCCCCCNC(=O)[C@@H]1CN(C(=O)c2ccc(C(=O)N3C[C@@H](C(=O)N[C@H]4C[C@@H]4c4ccccc4)[C@H](C(=O)N[C@H]4C[C@@H]4c4ccccc4)C3)cc2)C[C@H]1C(=O)N[C@H]1C[C@@H]1c1ccccc1` [Compound 34, 12-((3S,4S)-1-(4-((3S,4S)-3,4-Bis(((1S,2R)-2-phenylcyclopropyl)carbamoyl)pyrrolidine-1-carbonyl)-benzoyl)-4-(((1S,2R)-2-phenylcyclopropyl)carbamoyl)-pyrrolidine-3-carboxamido)dodecyl 2-azidoacetate] the same measures were 120%, 100%, 3.7 nM and 0.21 nM.
For `O=C(CNC(=O)OCc1ccccc1)OCCCCCCCCCCCCNC(=O)[C@@H]1CN(C(=O)c2ccc(C(=O)N3C[C@@H](C(=O)N[C@H]4C[C@@H]4c4ccccc4)[C@H](C(=O)N[C@H]4C[C@@H]4c4ccccc4)C3)cc2)C[C@H]1C(=O)N[C@H]1C[C@@H]1c1ccccc1` [Compound 36, 12-((3S,4S)-1-(4-((3S,4S)-3,4-Bis(((1S,2R)-2-phenyl-cyclopropyl)carbamoyl)pyrrolidine-1-carbonyl)-benzoyl)-4-(((1S,2R)-2-phenylcyclopropyl)carbamoyl)-pyrrolidine-3-carboxamido)-dodecyl 2-(((benzyloxy)carbonyl)-amino)acetate] the same measures were 410%, 100%, 40 nM and 0.1 nM.
Consider `O=C(CNC(=O)OCC(Cl)(Cl)Cl)OCCCCCCCCCCCCNC(=O)[C@@H]1CN(C(=O)c2ccc(C(=O)N3C[C@@H](C(=O)N[C@H]4C[C@@H]4c4ccccc4)[C@H](C(=O)N[C@H]4C[C@@H]4c4ccccc4)C3)cc2)C[C@H]1C(=O)N[C@H]1C[C@@H]1c1ccccc1` [Compound 37, 12-((3S,4S)-1-(4-((3S,4S)-3,4-Bis(((1S,2R)-2-phenyl-cyclopropyl)carbamoyl)pyrrolidine-1-carbonyl)benzoyl)-4-(((1S,2R)-2-phenylcyclopropyl)carbamoyl)pyrrolidine-3-carboxamido)-dodecyl 2-(((2,2,2-trichloroethoxy)-carbonyl)amino)acetate], for which the Emax at TLR1/TLR2 [1] was 300%; at TLR1/TLR2 [2] it was 100%. For the same compound, the EC50 came to 3.4 nM on TLR1/TLR2 [1] (setting [3]) and 0.27 nM on TLR1/TLR2 [2] (Table 3).
With `O=C(CNC(=O)OCC1c2ccccc2-c2ccccc21)OCCCCCCCCCCCCNC(=O)[C@@H]1CN(C(=O)c2ccc(C(=O)N3C[C@@H](C(=O)N[C@H]4C[C@@H]4c4ccccc4)[C@H](C(=O)N[C@H]4C[C@@H]4c4ccccc4)C3)cc2)C[C@H]1C(=O)N[C@H]1C[C@@H]1c1ccccc1` [Compound 38, 12-((3S,4S)-1-(4-((3S,4S)-3,4-Bis(((1S,2R)-2-phenyl-cyclopropyl)carbamoyl)pyrrolidine-1-carbonyl)benzoyl)-4-(((1S,2R)-2-phenylcyclopropyl)carbamoyl)pyrrolidine-3-carboxamido)-dodecyl 2-((((9H-fluoren-9-yl)methoxy)carbonyl)amino)acetate], the Emax on TLR1/TLR2 [1] is 170%; at TLR1/TLR2 [2], 100%. Also, the EC50 at TLR1/TLR2 [1] (setting [3]) stood at 375 nM; at TLR1/TLR2 [2] (Table 3), 56 nM.
`COC(=O)NCC(=O)OCCCCCCCCCCCCNC(=O)[C@@H]1CN(C(=O)c2ccc(C(=O)N3C[C@@H](C(=O)N[C@H]4C[C@@H]4c4ccccc4)[C@H](C(=O)N[C@H]4C[C@@H]4c4ccccc4)C3)cc2)C[C@H]1C(=O)N[C@H]1C[C@@H]1c1ccccc1` [Compound 39, 12-((3S,4S)-1-(4-((3S,4S)-3,4-Bis(((1S,2R)-2-phenylcyclopropyl)carbamoyl)pyrrolidine-1-carbonyl)benzoyl)-4-(((1S,2R)-2-phenylcyclopropyl)-carbamoyl)pyrrolidine-3-carboxamido)-dodecyl 2-((methoxycarbonyl)amino)acetate]: the values for the Emax on TLR1/TLR2 [1] and at TLR1/TLR2 [2] were 120% and 100%, respectively. The EC50 was found to be 6 nM at TLR1/TLR2 [1] (setting [3]) and 0.38 nM at TLR1/TLR2 [2] (Table 3).
With `CC(=O)NCC(=O)OCCCCCCCCCCCCNC(=O)[C@@H]1CN(C(=O)c2ccc(C(=O)N3C[C@@H](C(=O)N[C@H]4C[C@@H]4c4ccccc4)[C@H](C(=O)N[C@H]4C[C@@H]4c4ccccc4)C3)cc2)C[C@H]1C(=O)N[C@H]1C[C@@H]1c1ccccc1` [Compound 40, 12-((3S,4S)-1-(4-((3S,4S)-3,4-Bis(((1S,2R)-2-phenyl-cyclopropyl)carbamoyl)pyrrolidine-1-carbonyl)-benzoyl)-4-(((1S,2R)-2-phenylcyclopropyl)-carbamoyl)pyrrolidine-3-carboxamido)-dodecyl 2-acetamidoacetate], the figures for the Emax on TLR1/TLR2 [1] and on TLR1/TLR2 [2] were 180% and 90%, respectively. The EC50 came to 5 nM at TLR1/TLR2 [1] (setting [3]) and 0.1 nM on TLR1/TLR2 [2] (Table 3).
Consider `O=C(CNC(=O)C(F)(F)F)OCCCCCCCCCCCCNC(=O)[C@@H]1CN(C(=O)c2ccc(C(=O)N3C[C@@H](C(=O)N[C@H]4C[C@@H]4c4ccccc4)[C@H](C(=O)N[C@H]4C[C@@H]4c4ccccc4)C3)cc2)C[C@H]1C(=O)N[C@H]1C[C@@H]1c1ccccc1` [Compound 41, 12-((3S,4S)-1-(4-((3S,4S)-3,4-Bis(((1S,2R)-2-phenyl-cyclopropyl)carbamoyl)pyrrolidine-1-carbonyl)benzoyl)-4-(((1S,2R)-2-phenylcyclopropyl)-carbamoyl)pyrrolidine-3-carboxamido)-dodecyl 2-(2,2,2-trifluoroacetamido)acetate], for which the Emax on TLR1/TLR2 [1] and at TLR1/TLR2 [2] was 100% in each case. In addition, the EC50 at TLR1/TLR2 [1] (setting [3]) turned out to be 3.5 nM; on TLR1/TLR2 [2] (Table 3), 0.7 nM.
